Test results published in patent US6933320B2, “Combination comprising combretastatin and anticancer agents” (priority 2001, dated 2005).
Several values for one entry are separate records, joined by “and”; a condition that tells them apart may be missing. Equal values may be shown once. Read-outs that look alike come from different tables or passages of the source.

Columns and labels:
C51 = experiment: In vivo evaluation on subcutaneously grafted solid tumor C51
Procedure: A product is considered to be active if the log10 cell kill is greater than or equal to 0.7. A product is considered to be very active if the log10 cell kill is greater than 2.8.
(§1) The efficacy of the combinations on solid tumors were determined experimentally in the following manner:
The animals subjected to the experiment, generally mice, were subcutaneously grafted bilaterally with 30 to 60 mg of a tumor fragment on day 0. The animals bearing tumors were mixed before being subjected to the various treatments and controls. In the case of treatment of advanced tumors, tumors were allowed to develop to the desired size, and animals having insufficiently developed tumors were eliminated. The selected animals were distributed at random to undergo the treatments and controls. […] The different animal groups were weighed 3 or 4 times a week until the maximum weight loss was attained, and the groups were then weighed at least once a week until the end of the trial.
(§2) The tumors were measured 2 or 3 times a week until the tumor reached approximately 2 g, or until the animal died if this occurred before the tumor reached 2 g. The animals were autopsied when sacrificed.
(§3) The antitumor activity was determined in accordance with different parameters which were recorded such as dose (mg/kg), mode of administration, time of administration, cytotoxicity, toxicity and log cell kill.
The agents were administered intravenously unless otherwise specified.

MA13/C = type: in vivo
Procedure: This efficacy may be quantified, for example by the log10 cell kill, which is determined by the following formula: log10 cells killed=T-C(days)/3.32×Td in which T-C represents the time taken for the cells to grow, which is the mean time in days for the tumors of the treated group (T) to reach a predetermined value (1 g for example) and the tumors of the control group (C) to reach the same value, and Td represents the time in days needed for the volume of the tumors in the control group to double. (T. H. Corbett et al., Cancer, 40, 2660.2680 (1977); F. M. Schabel et al., Cancer Drug Development, Part B, Methods in Cancer Research, 17, 3-51, New York, Academic Press Inc. (1979)). A product is considered to be active if the log10 cell kill is greater than or equal to 0.7. A product is considered to be very active if the log10 cell kill is greater than 2.8.
as §1
The animals subjected to the experiment, generally mice, were subcutaneously grafted bilaterally with 30 to 60 mg of a tumor fragment on day 0. The animals bearing tumors were mixed before being subjected to the various treatments and controls. In the case of treatment of advanced tumors, tumors were allowed to develop to the desired size, and animals having insufficiently developed tumors were eliminated. The selected animals were distributed at random to undergo the treatments and controls. Animals not bearing tumors were also subjected to the same treatments as the tumor-bearing animals in order to be able to dissociate the toxic effect from the specific effect on the tumor. Chemotherapy generally began from 3 to 22 days after grafting, depending on the type of tumor, and the animals were observed every day. The different animal groups were weighed 3 or 4 times a week until the maximum weight loss was attained, and the groups were then weighed at least once a week until the end of the trial.
as §2, §3
In this and the following examples, RPR 258062A corresponds to the hydrochloride salt of compound IIa. The agents were administered intravenously unless otherwise specified.

[1] = Solubility in water (statement); type: physicochemical; settings: statement in words, no method given
[2] = sequential combination CPT-11 oral 400 mg/kg days 13-16 + RPR 258062A 36 mg/kg day 17
[3] = single agent at HNTD, RPR 258062A i.v. days 13-17 (2x/d), CPT-11 oral days 14-17
[4] = sequential combination RPR 258062A 58 mg/kg day 14 + CDDP 10 mg/kg days 15, 19, i.v.
[5] = simultaneous combination RPR 258062A 1st 116 mg/kg days 12, 16 + CDDP 10 mg/kg days 12, 16, i.v.
[6] = single agent at HNTD, i.v., schedule days 12, 16
[7] = MA13/C tumor, sequential combination RPR 258062A 1st 75 mg/kg day 14 + vinorelbine 2nd 32 mg/kg days 15, 25, i.v.
[8] = MA13/C tumor, single agent at HNTD, i.v., schedule days 15, 22 (doxorubicin study)
[9] = MA13/C tumor, single agent at HNTD, i.v., schedule days 15, 25 (vinorelbine study)
[10] = MA13/C tumor, single agent at HNTD, i.v., docetaxel days 17, 24 (* evaluated on mice that developed tumor), RPR 258062A days 17, 24 (2x/d)
[11] = MA13/C tumor, single agent at HNTD, i.v., docetaxel days 17, 24, RPR 258062A days 17, 24 (2x/d)

CCc1c2c(nc3ccc(OC(=O)N4CCC(N5CCCCC5)CC4)cc13)-c1cc3c(c(=O)n1C2)COC(=O)[C@]3(O)CC [CPT-11, reference compound]
LcK (log cell kill) (C51; [2]): 1.9
RR CR (complete response) (C51; [2]): 3/5
RR PR (partial response) (C51; [2]): 5/5
T-C (tumor growth delay) (C51; [2]): 15.1 days
TFS (tumor free survivors) (C51; [2]): 0/5
LcK (log cell kill) (C51; [3]): 1.1
RR CR (complete response) (C51; [3]): 0/5
RR PR (partial response) (C51; [3]): 0/5
T-C (tumor growth delay) (C51; [3]): 8.7 days
TFS (tumor free survivors) (C51; [3]): 0/5

COc1ccc(/C=C\c2cc(OC)c(OC)c(OC)c2)cc1NC(=O)C(N)CO (centres unmarked) [RPR 258062A]
HNTD Dose (highest nontoxic dose) (C51; sequential combination CPT-11 oral (days 13-16) + RPR 258062A i.v. (day 17), dose of each constituent): 36 mg/kg
LcK (log cell kill) (C51; [4]): 5.9
RR CR (complete response) (C51; [4]): 5/5
RR PR (partial response) (C51; [4]): 5/5
T-C (tumor growth delay) (C51; [4]): 51 days
TFS (tumor free survivors) (C51; [4]): 0/5
HNTD Dose (highest nontoxic dose) (C51; sequential combination RPR 258062A (day 14) + CDDP (days 15, 19), i.v., dose of each constituent): 58 mg/kg
RR CR (complete response) (C51; [5]): 6/6
RR PR (partial response) (C51; [5]): 6/6
TFS (tumor free survivors) (C51; [5]): 6/6
HNTD Dose (highest nontoxic dose) (C51; simultaneous combination RPR 258062A 1st (days 12, 16) + CDDP (days 12, 16), i.v., dose of each constituent): 116 mg/kg
LcK (log cell kill) (C51; [3]): 1.3
RR CR (complete response) (C51; [3]): 0/5
RR PR (partial response) (C51; [3]): 5/5
T-C (tumor growth delay) (C51; [3]): 10.3 days
TFS (tumor free survivors) (C51; [3]): 0/5
LcK (log cell kill) (C51; [6]): 1.2
RR CR (complete response) (C51; [6]): 0/6
RR PR (partial response) (C51; [6]): 6/6
T-C (tumor growth delay) (C51; [6]): 10 days
TFS (tumor free survivors) (C51; [6]): 0/6
HNTD Dose (highest nontoxic dose) (C51; single agent, RPR 258062A i.v. days 13-17 (2x/d), CPT-11 oral days 14-17): 116.5 mg/kg
HNTD Dose (highest nontoxic dose) (C51; single agent, i.v., schedule days 12, 16): 116 mg/kg
RR CR (complete response) (MA13/C; MA13/C tumor, sequential combination RPR 258062A 150 mg/kg days 16, 23 (2x/d) + docetaxel 109.6 mg/kg days 17, 24, i.v.): 6/6
RR CR (complete response) (MA13/C; [7]): 5/5
RR PR (partial response) (MA13/C; [7]): 5/5
T-C (tumor growth delay) (MA13/C; [7]): 84.7 days
HNTD Dose (highest nontoxic dose) (MA13/C; MA13/C tumor, sequential combination RPR 258062A 1st (day 14) + vinorelbine 2nd (days 15, 25), i.v., dose of each constituent): 75 mg/kg
HNTD Dose (highest nontoxic dose) (MA13/C; MA13/C tumor, sequential combination RPR 258062A (days 15, 21) + doxorubicin (days 16, 22), i.v., dose of each constituent): 139.6 mg/kg
HNTD Dose (highest nontoxic dose) (MA13/C; MA13/C tumor, sequential combination RPR 258062A (days 16, 23, 2x/d) + docetaxel (days 17, 24), i.v., dose of each constituent): 150 mg/kg
LcK (log cell kill) (MA13/C; [8]): 1.3
RR CR (complete response) (MA13/C; [8]): 0/6
RR PR (partial response) (MA13/C; [8]): 0/6
T-C (tumor growth delay) (MA13/C; [8]): 30.2 days
TFS (tumor free survivors) (MA13/C; [8]): 0/6
LcK (log cell kill) (MA13/C; [9]): 0.5
RR CR (complete response) (MA13/C; [9]): 0/5
RR PR (partial response) (MA13/C; [9]): 0/5
T-C (tumor growth delay) (MA13/C; [9]): 5 days
TFS (tumor free survivors) (MA13/C; [9]): 0/5
LcK (log cell kill) (MA13/C; [10]): 1.3
RR CR (complete response) (MA13/C; [11]): 1/6
RR PR (partial response) (MA13/C; [11]): 1/6
T-C (tumor growth delay) (MA13/C; [11]): 10.8 days
TFS (tumor free survivors) (MA13/C; [11]): 0/6
HNTD Dose (highest nontoxic dose) (MA13/C; MA13/C tumor, single agent, i.v., schedule days 15, 22 (doxorubicin study)): 186.0 mg/kg
HNTD Dose (highest nontoxic dose) (MA13/C; MA13/C tumor, single agent, i.v., schedule days 15, 25 (vinorelbine study)): 150 mg/kg
HNTD Dose (highest nontoxic dose) (MA13/C; MA13/C tumor, single agent, i.v., docetaxel days 17, 24, RPR 258062A days 17, 24 (2x/d)): 242 mg/kg
RR CR (complete response) (MA13/C; mouse, in vivo): 7/7
RR PR (partial response) (MA13/C; mouse, in vivo): 6/6 and 7/7
T-C (tumor growth delay) (MA13/C; mouse, in vivo): 74.8 days and 80.6 days
TFS (tumor free survivors) (MA13/C; mouse, in vivo): 2/5 and 4/6 and 2/7

CCC1=C[C@@H]2CN(C1)Cc1c([nH]c3ccccc13)[C@@](C(=O)OC)(c1cc3c(cc1OC)N(C)[C@H]1[C@@](O)(C(=O)OC)[C@H](OC(C)=O)[C@]4(CC)C=CCN5CC[C@]31[C@@H]54)C2 [Vinorelbine, vinorelbine, reference compound]
LcK (log cell kill) (MA13/C; [9]): 4.6
RR CR (complete response) (MA13/C; [9]): 5/5
RR PR (partial response) (MA13/C; [9]): 5/5
T-C (tumor growth delay) (MA13/C; [9]): 45.5 days
TFS (tumor free survivors) (MA13/C; [9]): 0/5
HNTD Dose (highest nontoxic dose) (MA13/C; mouse, in vivo, iv): 19.8 mg/kg

N.N.[Cl][Pt][Cl] [CDDP, cisplatinum, reference compound]
LcK (log cell kill) (C51; [6]): 1.9
RR CR (complete response) (C51; [6]): 0/6
RR PR (partial response) (C51; [6]): 5/6
T-C (tumor growth delay) (C51; [6]): 16.5 days
TFS (tumor free survivors) (C51; [6]): 0/6

CC(=O)O[C@@]12CO[C@@H]1C[C@H](O)[C@@]1(C)C(=O)[C@H](O)C3=C(C)[C@@H](OC(=O)[C@H](O)[C@@H](NC(=O)OC(C)(C)C)c4ccccc4)C[C@@](O)([C@@H](OC(=O)c4ccccc4)[C@H]21)C3(C)C [Docetaxel, docetaxel, reference compound]
LcK (log cell kill) (MA13/C; [10]): 3.2*
RR CR (complete response) (MA13/C; [11]): 4/6
RR PR (partial response) (MA13/C; [11]): 6/6
T-C (tumor growth delay) (MA13/C; [11]): 26.7 days
TFS (tumor free survivors) (MA13/C; [11]): 3/6
HNTD Dose (highest nontoxic dose) (MA13/C; mouse, in vivo, iv): 68 mg/kg

COc1ccc(/C=C\c2cc(OC)c(OC)c(OC)c2)cc1NC(=O)C(N)CO (centres unmarked) [IIa]
Solubility in water [1]: soluble in water

COc1cccc2c1C(=O)c1c(O)c3c(c(O)c1C2=O)C[C@@](O)(C(=O)CO)C[C@@H]3O[C@H]1C[C@H](N)[C@H](O)[C@H](C)O1 [Doxorubicin, doxorubicin, reference compound]
LcK (log cell kill) (MA13/C; [8]): 4.5
RR CR (complete response) (MA13/C; [8]): 4/6
RR PR (partial response) (MA13/C; [8]): 4/6
T-C (tumor growth delay) (MA13/C; [8]): 53.5 days
TFS (tumor free survivors) (MA13/C; [8]): 0/6
HNTD Dose (highest nontoxic dose) (MA13/C; mouse, in vivo, iv): 17.4 mg/kg
